According to patent publication US20100173888A1 (Pfizer Inc, priority 2008, published 2010):
Structures can show the parent of a compound that is named as a salt.

The compounds below were run against human recombinant H-PGDS (Homo sapiens, UniProt O60760) (assay: Fluorescence intensity h-PGDS TBA enzyme assay (PGH2 depletion, MDA/TBA fluorescence)). Settings: 1:175,000 human recombinant H-PGDS, 42 second reaction, 3-fold serial dilutions, highest concentration typically 1 μM.
Assay type: biochemical
Procedure: Fluoresecence Intensity h-PGDSTBA Enzyme Assay
Prostaglandin D Synthase (PGDS) converts the substrate prostaglandin H2 (PGH2) to prostaglandin D2. The depletion of PGH2 was measured via an Fe(II) reduction of the remaining PGH2 to malondialdehyde (MDA) and 12-HHT. The enzyme assay is based on the quantitative formation of a fluorescent complex from the non-fluorescent compounds MDA and 2-thiobarbituric acid (TBA), substantially as described in U.S. patent application publication US-2004/152148 by Lombardt.
The enzyme assay (31 μls) contained 100 mM Tris base pH 8.0, 100 μM MgCl2, 0.1 mg/ml IgG Rabbit serum, 5.0 μM PGH2 (Cayman; ethanol solution, #17020), 2.5 mM L-Glutathione (Sigma; reduced form. #G4251), 1:175,000 human recombinant H-PGDS (from 1 mg/ml), 0.5% DMSO and inhibitor (varying concentration). Three μls of diluted inhibitor (dissolved in DMSO) was plated into a 384-well assay plate followed by a 25 μl addition of an enzyme solution containing h-PGDS, Tris, MgCl2, IgG and L-Glutathione. After preincubation of inhibitor and enzyme solution for 10 minutes at room temperature, the reaction was initiated with a 3 μl addition of substrate solution in 10 mM HCl. The reaction was terminated after 42 second by the addition (3 μl) of stop buffer containing FeCl2 and citric acid. After addition of 45.5 μls of TBA plates were heated for one hour in a 70° C. oven. Plates were cooled at room temperature overnight and read on a plate reader the next day with excitation @ 530 nm and emission @ 565 nm.
IC50' s of inhibitors were calculated with a 4-parameter fit using 11 inhibitor concentrations in duplicate with 3-fold serial dilutions. Controls on each plate included no inhibitor (zero % effect) and an inhibitor 10-fold in excess of its' IC50 (100% effect). The highest inhibitor concentration tested was typically 1 μM.

Chain of human recombinant H-PGDS (O60760 whole entry): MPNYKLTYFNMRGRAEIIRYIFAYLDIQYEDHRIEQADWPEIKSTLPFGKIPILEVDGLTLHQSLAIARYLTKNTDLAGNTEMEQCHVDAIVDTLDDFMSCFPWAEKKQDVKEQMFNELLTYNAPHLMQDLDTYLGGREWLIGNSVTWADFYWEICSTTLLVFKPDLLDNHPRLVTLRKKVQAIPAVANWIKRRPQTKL

IC50 | Structure (SMILES)
50.8 nM | CC(O)C(=O)N[C@H]1CC[C@@H](NC(=O)c2ccc(-c3cccc(F)c3)nc2)CC1 (relative stereo) [Example 222, 6-(3-fluorophenyl)-N-[cis-4-(lactoylamino)cyclohexyl]nicotinamide]
20.1 nM | O=C(N[C@@H]1CCCC[C@@H]1CO)c1ccc(-c2cccc(F)c2)nc1 [Example 24]
6.1 nM | CC[C@H](O)C(=O)N[C@H]1CC[C@H](NC(=O)c2ccc(-c3cccc(F)c3)nc2)CC1 [Example 113L, 6-(3-fluorophenyl)-N-(trans-4-{[(2S)-2-hydroxybutanoyl]amino}cyclohexyl)nicotinamide]
10.2 nM | CCC(O)CNC(=O)[C@H]1CCC[C@@H](NC(=O)c2ccc(-c3cccc(F)c3)nc2)C1 (some centres unmarked) [Example 197]
79.7 nM | CN1CCC(C(=O)N[C@H]2CC[C@@H](NC(=O)c3ccc(-c4cccc(F)c4)nc3)CC2)CC1 [Example 218, 6-(3-fluorophenyl)-N-(cis-4-{[(1-methylpiperidin-4-yl)carbonyl]amino}cyclohexyl)nicotinamide]
7.11 nM | O=C(NC1CCCC1)c1ccc(-c2cccc(F)c2)nc1 [Example 9, N-Cyclopentyl-6-(3-fluorophenyl)nicotinamide]
10.3 nM | O=C(NC1CCC(O)(C(F)(F)F)CC1)c1ccc(-c2cccc(F)c2)nc1 (mixture of isomers) [Example 151, 6-(3-Fluorophenyl)-N-(trans 4-hydroxy-4-trifluoromethylcyclohexyl)nicotinamide and 6-(3-Fluorophenyl)-N-(cis 4-hydroxy-4-trifluoromethylcyclohexyl)nicotinamide]
68.7 nM | CN1CCN(CC(=O)N[C@@H]2CCC[C@H](NC(=O)c3ccc(-c4cccc(F)c4)nc3)C2)CC1 (relative stereo) [Example 204]
11.5 nM | O=C(N[C@H]1CC[C@@H](C(=O)N2CCN(CCO)CC2)C1)c1ccc(-c2cccc(F)c2)nc1 [Example 156, 6-(3-fluorophenyl)-N-[(1S,3R)-3-{[4-(2-hydroxyethyl)piperazin-1-yl]carbonyl}cyclopentyl]nicotinamide]
15.1 nM | COCCNC(=O)[C@@H]1CC[C@H](NC(=O)c2ccc(-c3cccc(F)c3)nc2)C1 [Example 169, 6-(3-Fluorophenyl)-N-{(1S,3R)-3-[(2-methoxyethyl)carbamoyl]cyclopentyl}nicotinamide]
4.1 nM | O=C(N[C@H]1CC[C@@H](C(=O)N2CC[C@@H](F)C2)C1)c1ccc(-c2cccc(F)c2)nc1 [Example 161, 6-(3-fluorophenyl)-N-[(1S,3R)-3-{[(3R)-3-fluoropyrrolidin-1-yl]carbonyl}cyclopentyl]nicotinamide]
30 nM | O=C(NC1CCCc2ccccc21)c1ccc(-c2ccc(F)cc2)nc1 (centres unmarked) [Example 123, 6-(4-Fluorophenyl)-N-(1,2,3,4-tetrahydronaphthalen-1-yl)nicotinamide]
5.4 nM | Cc1nnc(C[C@H]2CC[C@@H](NC(=O)c3ccc(-c4cccc(F)c4)nc3)CC2)o1 [Example 273, 6-(3-Fluorophenyl)-N-{cis-4-[(5-methyl-1,3,4-oxadiazolyl-2-yl)methyl]cyclohexyl}nicotinamide]
23.9 nM | NC(=O)[C@H]1CC[C@@H](NC(=O)c2ccc(-c3cccc(F)c3)nc2)C1 [Example 186, N-[(1R,3S)-3-Carbamoylcyclopentyl]-6-(3-fluorophenyl)nicotinamide]
11.2 nM | O=C(N[C@H]1CC[C@@H](C(=O)NC2CC2)C1)c1ccc(-c2cccc(F)c2)nc1 [Example 160, N-[(1S,3R)-3-(cyclopropylcarbamoyl)cyclopentyl]-6-(3-fluorophenyl)nicotinamide]
37.3 nM | CN1CCN(C(=O)[C@@]2(C)CCC[C@@H](NC(=O)c3ccc(-c4cccc(F)c4)nc3)C2)CC1 [Example 230, 6-(3-Fluorophenyl)-N-{(1R,3S)-3-methyl-3-[(4-methylpiperazin-1-yl)carbonyl]cyclohexyl}nicotinamide]
2.29 nM | O=C(N[C@H]1CC[C@H](O)CC1)c1ccc(-c2cccc(F)c2)nc1 [Example 104, 6-(3-Fluorophenyl)-N-(trans-4-hydroxycyclohexyl)nicotinamide]
6.66 nM | O=C(NC12CC(C1)C2)c1ccc(-c2cccc(F)c2)nc1 [Example 125, N-Bicyclo[1.1.1]pent-1-yl-6-(3-fluorophenyl)nicotinamide]
35.5 nM | CC(C)(O)[C@H]1CC[C@@H](NC(=O)c2ccc(-c3cccc(F)c3)nc2)C1 [Example 166, 6-(3-Fluorophenyl)-N-[(1R,3S)-3-(1-hydroxy-1-methylethyl)cyclopentyl]nicotinamide]

IC50 | Structure (SMILES)
13.7 nM | CNCCNC(=O)[C@H]1CCC[C@@H](NC(=O)c2ccc(-c3cccc(F)c3)nc2)C1 (relative stereo) [Example 189, 6-(3-Fluorophenyl)-N-cis-3-{([2-(methylamino)ethyl]carbamoyl}cyclohexyl]nicotinamide]
17.1 nM | O=C(CO)N[C@@H]1CCC[C@H](NC(=O)c2ccc(-c3cccc(F)c3)nc2)C1 (relative stereo) [Example 202]
10.2 nM | CN[C@H]1CC[C@H](NC(=O)[C@@H]2CCC[C@H](NC(=O)c3ccc(-c4cccc(F)c4)nc3)C2)CC1 (stereo in doubt) [Example 193, 6-(3-Fluorophenyl)-N-[(1S,3R)-3-{[trans-4-(methylamino)cyclohexyl]carbamoyl}cyclohexyl]nicotinamide]
47.1 nM | CN(C)C(=O)[C@@H]1CCC[C@@H](NC(=O)c2ccc(-c3cccc(F)c3)nc2)C1 (relative stereo) [Example 238]
40.3 nM | NCCC(O)C1CCC(NC(=O)c2ccc(-c3cccc(F)c3)nc2)CC1 (centres unmarked) [Example 154, N-[4-(3-Amino-1-hydroxypropyl)cyclohexyl]6-(3-fluorophenyl)nicotinamide hydrochloride]
20.3 nM | O=C(N[C@@H]1CC[C@H](C(=O)N2CCN(CCO)CC2)C1)c1ccc(-c2cccc(F)c2)nc1 [Example 184]
46 nM | O=C(N[C@H]1CC[C@H](C(=O)NCCN2CCCCC2)CC1)c1ccc(-c2cccc(F)c2)nc1 [Example 113H, 6-(3-fluorophenyl)-N-{trans-4-[(2-piperidin-1-ylethyl)carbamoyl]cyclohexyl}nicotinamide]
5.3 nM | COC1(CO)CCC(NC(=O)c2ccc(-c3cccc(F)c3)nc2)CC1 (centres unmarked) [Example 225, 6-(3-Fluorophenyl)-N-[4-(hydroxymethyl)-4-methoxycyclohexyl]nicotinamide]
6.6 nM | CC[C@@H](O)C(=O)N[C@H]1CC[C@H](NC(=O)c2ccc(-c3cccc(F)c3)nc2)CC1 [Example 113J, 6-(3-fluorophenyl)-N-(trans-4-{[(2R)-2-hydroxybutanoyl]amino}cyclohexyl)nicotinamide]
9.6 nM | N[C@@H]1[C@H]2CN(C(=O)[C@H]3CC[C@H](NC(=O)c4ccc(-c5cccc(F)c5)nc4)CC3)C[C@@H]12 [Example 210, N-(trans-4-{[(1R,5S,6S)-6-Amino-3-azabicyclo[3.1.0]hex-3-yl]carbonyl}cyclohexyl)-6-(3-fluorophenyl)nicotinamide]
4.1 nM | CCN1CCN(C(=O)[C@@]2(C)CCC[C@@H](NC(=O)c3ccc(-c4cccc(F)c4)nc3)C2)CC1 (relative stereo) [Example 233, N-{(1R*,3S*)-3-[(4-Ethylpiperazin-1-yl)carbonyl]-3-methylcyclohexyl}-6-(3-fluorophenyl)nicotinamide]
16.1 nM | C[C@H](CO)NC(=O)[C@@H]1CC[C@H](NC(=O)c2ccc(-c3cccc(F)c3)nc2)C1 [Example 164, 6-(3-Fluorophenyl)-N-{(1S,3R)-3-[(2-hydroxy-1-methylethyl)carbamoyl]cyclopentyl}nicotinamide]
3 nM | CCC(O)[C@H]1CC[C@H](NC(=O)c2ccc(-c3cccc(F)c3)nc2)CC1 (stereo partly drawn) [Example 214, 6-(3-Fluorophenyl)-N-[trans-4-(1-hydroxypropyl)cyclohexyl]nicotinamide]
13.3 nM | O=C(N[C@@H]1CCC[C@H](CO)C1)c1ccc(-c2cccc(F)c2)nc1 (relative stereo) [Example 251A]
17.1 nM | COCC(=O)NC[C@H]1CCC[C@@H](NC(=O)c2ccc(-c3cccc(F)c3)nc2)C1 (relative stereo) [Example 252]
15.4 nM | O=C(N[C@@H]1CCC[C@@H](C(=O)N2CCOCC2)C1)c1ccc(-c2cccc(F)c2)nc1 (relative stereo) [Example 241]
6.1 nM | CN(C)C(=O)[C@@H]1CC[C@H](NC(=O)c2ccc(-c3cccc(F)c3)nc2)C1 [Example 163, N-[(1S,3R)-3-(Dimethylcarbamoyl)cyclopentyl]-6-(3-fluorophenyl)nicotinamide]
18 nM | CN(C)C(=O)N[C@H]1CC[C@H](NC(=O)c2ccc(-c3cccc(F)c3)nc2)CC1 [Example 271]
34.9 nM | O=C(N[C@@H]1CCC[C@@H](C(=O)N2CCCC2)C1)c1ccc(-c2cccc(F)c2)nc1 (relative stereo) [Example 239]
